From publication PMC8573827, “Zinc protoporphyrin binding to telomerase complexes and inhibition of telomerase activity” (Pharmacology Research & Perspectives, 2021)

Experiments:
Huh7 cells [1] = assay: Annexin V apoptosis assay, Huh7; assay type: cell-based, human; conditions: Huh7, 10 µM, 48 h
Procedure: (§1) For detection of MPP apoptotic effects, cells were treated with MPPs (0, 2.5, 5 and 10 µM) for 48 h and assayed using PE Annexin V Apoptosis Detection Kit (Cat. No. 559763, BD Biosciences) as recommended by the manufacturer.

U2OS cells [2] = assay: MTT cell proliferation/viability assay, telomerase negative U2OS; assay type: cell-based, human; conditions: 48 h
Procedure: (§2) MPPs were tested for effects on cell proliferation and viability using MTT (3‐(4,5‐dimethylthiazol‐2‐yl)‐2,5‐diphenyltetrazolium bromide) dye conversion assay (Cell Titer 96, Promega) as we described[22] with some modifications. Cells were plated into 96 well plates and allowed to attach overnight. MPPs were added to the cultures and then incubated for the times indicated. At assay time, MTT reagent was added and absorbance measured at 570 nm. Controls included buffer blanks containing MPP because of background absorbances reported for MPPs by us[22] and others.[23] The formula used for determination of viable cells relative to controls was: %viablecells=(abssample‐absblank)/(absconrtrol‐absblank)×100

[3] = tested on: TERT transfected U2OS cells; assay: MTT viability assay in U2OS cells transfected with human TERT; assay type: cell-based; conditions: U2OS transfected with pCI neo-hEST2, ZnPP 48 h
Procedure: Lipofectamine^T ^M 2000 (ThermoFisher) was used for all transfections and closely followed the manufacturer's protocol. For TERT overexpression the catalytically active TERT plasmid pCI neo‐hEST2, a gift from Dr. Robert Weinberg (Addgene plasmid # 1781)[19] was used. Telomerase RNA component (TERC) plasmid (pBS U3‐hTR‐500) was also obtained from Addgene (plasmid # 28170), a gift from Dr. Kathleen Collins.[20], [21]
as §2

Huh7 cells [4] = assay: DNA synthesis, 3H-thymidine incorporation, Huh7; assay type: cell-based, human; conditions: Huh7, 10 µM MPP, 24–72 h
Procedure: (§3) Semi‐quantitative differences in DNA synthesis were determined by measuring ^3H‐thymidine uptake into whole cells in log phase growth. At indicated time points, cell cultures were washed with serum‐free, thymidine deficient medium, then incubated with fresh medium containing 1 μCi/ml of ^3H‐thymidine for two hours at 37°C. Cultures were washed twice with PBS while attached to dishes, then lysed with 0.5 M NaOH and the relative amount of ^3H‐thymidine quantified by scintillation counting.

Hek293 cells [5] = assay: DNA synthesis, 3H-thymidine incorporation, Hek293; assay type: cell-based, human; conditions: Hek293, 10 µM MPP, 24–72 h
Procedure: as §3

Huh7 cells [6] = assay: MTT cell proliferation/viability assay, Huh7; assay type: cell-based, human; conditions: Huh7, 10 µM MPP, 48 h
Procedure: as §2

Taq DNA polymerase = target: T1, Taq DNA polymerase (Thermus aquaticus, UniProt P19821); assay: Taq polymerase inhibition test, MPP added after the telomerase extension step of TRAP; assay type: biochemical; conditions: TRAP, MPP added for the amplification steps only
T1 construct: purchased Perkin‐Elmer Cetus, Norwalk, CT
Procedure: For TRAP assay, a Quantitative Telomerase Detection Kit (US Biomax, Inc) was used to assay cellular lysates or TERT immunoprecipitates (IP) according to the manufacturer's directions. Relative telomerase activity was derived from a standard curve of reference samples and data were analyzed using relative fluorescence units as compared to controls. In some cases, telomerase reaction products were visualized and quantified with TRAPeze system (EMD/Millipore). After separation of the DNA products using 10% non‐denaturing PAGE and SYBR fluorescence labeling [1x SYBR safe DNA gel stain (Invitrogen)], gel bands were imaged with iBright 1500 (Invitrogen). The intensity of the sample's TRAP ladder and internal control was first measured using GelAnalyzer [GelAnalyzer 19.1 (www.gelanalyzer.com )] as recommended. Then, the relative telomerase activity was determined by the ratio of the intensity of the sample's TRAP ladder (telomerase products, TP) to that of the internal control (IC) band.
Because of concerns that some quadruplex ligands inhibit Taq DNA polymerase in addition to telomerase, we assayed MPP inhibition at both steps of the TRAP procedure with a strategy similar to that of others.[36] Using equivalent extracts but separate assays, MPP was either included in the telomerase RT extension step or the extension step was conducted without MPP and then MPP added only for the amplification steps with Taq DNA polymerase. To avoid further potential errors introduced by Real‐time quantification, TRAP products were labeled with SYBR green, visualized on denaturing gels, and each lane was quantified by density measurements as described in the Methods. The latter step also ruled out the possibility that decreases in activity were artifactual due to fluorescence signal quenching by some MPPs.[37] […] All three MPPs had minimal effects on Taq polymerase […] and the slight inhibition of Taq polymerase seen for ZnPP was not directly concentration‐dependent.
Enzymatic extracts were prepared from semi-confluent Huh7 cells and aliquots were assayed in triplicate using TRAP assay. CoPP was added to RT-PCR reactions either before or after the RT telomere elongation step to test whether it inhibited Taq polymerase. Visualization of amplified telomeric products was on 12% denaturing gels using SYBR fluorescence labelling (upper panels). Quantification was with densitometry as described in Methods and plot shown (lower panel). Plotted points represent the mean +/- SD with n =3. (IC)= internal Taq polymerase control.

Hek293 cells [7] = assay: MTT cell proliferation/viability assay, Hek293; assay type: cell-based, human; conditions: Hek293, 10 µM MPP, 48 h
Procedure: as §2

U2OS cells [8] = assay: Annexin V apoptosis assay, U2OS; assay type: cell-based, human; conditions: 48 h
Procedure: as §1

[9] = tested on: TERT, β-catenin, and cyclin D1 expression; assay: Western blot of proliferative proteins in Huh7 cells; assay type: cell-based, human; conditions: Huh7, 48 h
Procedure: For SDS ‐PAGE, cellular lysates, and protein preparations such as IP were dissolved in Laemmli buffer, boiled for 1 min and separated on denaturing SDS gels as described.[28] After electrophoretic transfer of separated proteins to nitrocellulose sheets, western blot immunoassays employed enhanced chemiluminescence for signal detection (ECL^TM Prime, Amersham).[28]

Hek293 cells [10] = assay: Annexin V apoptosis assay, Hek293; assay type: cell-based, human; conditions: Hek293, 10 µM, 48 h
Procedure: as §1

[11] = tested on: high molecular weight complexes containing telomerase; assay: Fluorescent labelling of cellular lysate complexes on non-denaturing 0.8% agarose gels; assay type: binding, human; conditions: Huh7 lysates, fluorescence visualization
Procedure: 0.8% Agarose gels were run in Tris‐Borate‐EDTA buffer using standard slab gels as described for high molecular weight complexes.[27] Cell lysates were produced by lysing Hek293 and Huh7 cells in NP40 buffer (25 mM HEPES‐KOH, 150 mM KCl, 1.5mM MgCl2, 10% glycerol, 0.5% NP40, 5 mM 2ME, pH 7.5 supplemented with protease inhibitors) for 30 min on ice. Extracts were clarified by centrifugation for 16 000 g for 10 min. The protein concentration was determined by Bradford assay. The indicated amounts of proteins were treated with different amounts of ZnPP for 2 h on ice, and then separated on 0.8% Agarose gels prepared with 0.5xTris‐Borate‐EDTA (TBE) buffer. The gels were run at 100 V for 2 h at 4 °C in 0.5x TBE buffer. […] No antibody and normal rabbit IgG (sc‐2027, Santa Cruz Biotechnology) were included as controls. The IP products were treated with ZnPP and electrophoresed as above. Free ZnPP and ZnPP bound to large complexes were visualized using a wide‐wavelength UV lightbox or with red fluorescence using excitation (EX) 608–632 nm and emission (EM) 675–720 nm. Thyroglobulin (670 kD), a heavy MW marker, was run in parallel lanes and visualized with Coomassie Blue staining or fluorescence to size the complexes. In some cases, cell lysates or IP were incubated with RNase A (Life Technologies, NY); or DNase 1 (Qiagen, CA) 100 µg/ml for 1 h at 4 °C prior to electrophoresis.

T1 sequence (P19821 whole entry): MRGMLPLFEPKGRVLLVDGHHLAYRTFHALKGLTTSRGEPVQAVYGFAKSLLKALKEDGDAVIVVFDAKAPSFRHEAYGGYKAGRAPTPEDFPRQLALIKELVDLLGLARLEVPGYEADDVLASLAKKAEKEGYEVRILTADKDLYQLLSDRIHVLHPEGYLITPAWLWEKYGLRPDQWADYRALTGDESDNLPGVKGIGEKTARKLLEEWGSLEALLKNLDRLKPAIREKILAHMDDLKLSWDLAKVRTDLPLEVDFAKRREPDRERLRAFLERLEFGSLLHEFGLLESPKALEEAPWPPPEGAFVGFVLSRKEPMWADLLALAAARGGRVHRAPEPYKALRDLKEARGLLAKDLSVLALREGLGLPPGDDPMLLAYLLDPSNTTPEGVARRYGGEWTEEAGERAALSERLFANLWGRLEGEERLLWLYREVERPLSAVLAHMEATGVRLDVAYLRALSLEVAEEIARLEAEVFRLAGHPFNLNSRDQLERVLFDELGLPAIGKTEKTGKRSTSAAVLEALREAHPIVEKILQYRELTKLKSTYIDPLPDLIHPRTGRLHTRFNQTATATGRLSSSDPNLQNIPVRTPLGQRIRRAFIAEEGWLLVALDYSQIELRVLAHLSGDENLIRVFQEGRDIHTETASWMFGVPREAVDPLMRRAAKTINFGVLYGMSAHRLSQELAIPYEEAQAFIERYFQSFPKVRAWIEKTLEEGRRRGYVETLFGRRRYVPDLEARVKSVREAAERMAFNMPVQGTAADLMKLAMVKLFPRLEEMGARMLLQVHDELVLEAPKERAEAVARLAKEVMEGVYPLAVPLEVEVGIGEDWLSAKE

C=CC1=C(C)c2cc3[n-]c(cc4nc(cc5[n-]c(cc1n2)c(C)c5C=C)C(C)=C4CCC(=O)O)c(CCC(=O)O)c3C.[Zn+2] [ZnPP, zinc protoporphyrin]
Apoptosis (Huh7 cells [1]): ~50% | Effect on proliferation in telomerase negative cells (U2OS cells [2]): only minor effects on proliferation | Sensitivity of viability after TERT transfection [3]: restored ZnPP sensitivity | Effect on DNA synthesis (3H-thymidine incorporation) (Huh7 cells [4]): severely attenuated DNA synthesis | Effect on DNA synthesis (3H-thymidine incorporation) (Hek293 cells [5]): severely attenuated DNA synthesis | Depression of cellular proliferation relative to vehicle only controls (Huh7 cells [6]): greater than 50% | Effect on Taq polymerase (Taq DNA polymerase): minimal inhibition | Depression of cellular proliferation relative to vehicle only controls (Hek293 cells [7]): greater than 50% | Effect on apoptosis in telomerase negative cells (U2OS cells [8]): failed to have an increased effect on apoptosis | Effect on expression of TERT, β-catenin and cyclin D1 (western blot) [9]: nearly eliminated | Apoptosis (Hek293 cells [10]): ~50% | Labelling/binding of cellular complexes on agarose gels [11]: bound to high molecular weight complexes in a concentration dependent manner
